Measurements published in patent publication US20160355544A1, “NOVEL CHOLESTEROL METABOLITE, 5-CHOLESTEN, 3BETA-25-DIOL, DISULFATE (25HCDS) FOR THERAPY OF METABOLIC DISORDERS, HYPERLIPIDEMIA, DIABETES, FATTY LIVERS DISEASES AND ATHEROSCLEROSIS” (priority 2012, published 2016).
“And” between values parts separate entries of the source, which are not always exact repeats. Identical values can stand only once.

How the values were obtained:
[1] = test system: PPARγ; experiment: PPARγ mRNA regulation by 25HC3S (comparison in discussion); details: administration of 25HC3S, compared with 25HCDS
[2] = Liver function assays in sera of HFD-fed mice; format: in vivo, C57BL/6J mice; details: data not shown
Experimental: (§1) Animal studies were approved by Institutional Animal Care and Use Committee of McGuire Veterans Affairs Medical Center and were conducted in accordance with the Declaration of Helsinki, the Guide for the Care and Use of Laboratory Animals, and all applicable regulations. To examine the effect of 25HCDS on diet-induced lipid accumulation in sera and liver, 8-week-old female C57BL/6J mice (Charles River, Wilmington, Mass.) were fed high fat diet (HFD) (Harlan Teklad, Madison, Wis.) containing 42% kcal from fat, 43% kcal from carbohydrate, 15% kcal from protein and 0.2% cholesterol for 10 weeks. All mice were housed under identical conditions in an aseptic facility and given free access to water and food. At the end of each period, the mice were intraperitoneally injected with vehicle solution (ethanol/PBS; Vehicle), or 25HCDS (25 mg/kg) once every three days for 6 weeks and fasted for overnight; and blood samples were collected. Serum triglyceride, total cholesterol, high density lipoprotein-cholesterol, glucose, alkaline phosphatase (ALK), alanine aminotransferase (ALT), and aspartate aminotransferase (AST) were measured using standard enzymatic techniques in the clinical laboratory at McGuire Veterans Affairs Medical Center. Lipoprotein profiles in sera were analyzed by HPLC as described below.

[3] = test system: Hepatic mRNA Expression involved in inflammatory responses in the Mice Fed a HFD; experiment: Relative hepatic mRNA expression of inflammatory response genes in HFD-fed mice (real-time RT-PCR); format: in vivo, C57BL/6J mice
Experimental: (§2) Total RNA was isolated with SV Total RNA Isolation Kit (Promega, Madison, Wis.), which included DNase treatment. Total RNA, 2 μg, was used for the first-strand cDNA synthesis as recommended by the manufacturer (Invitrogen, Carlsbad, Calif.). Real-time RT-PCR was performed using a suitable dye as indicator on ABI 7500 Fast Real-Time PCR System (Applied Biosystems, Foster City, Calif.). All primer/probe sets for real-time PCR were TaqMan gene expression assays (Applied Biosystems, Foster City, Calif.). Amplifications of β-actin and glyceraldehyde 3-phosphate dehydrogenase (GAPDH) were used as internal controls. Relative messenger RNA (mRNA) expression was quantified with the comparative cycle threshold (Ct) method and was expressed as 2^−ΔΔct. The sequences of suitable primers for amplification are described, for example, in Ren et al., 2007 (1).
as §1

[4] = test system: HFD-fed mice; experiment: Quantification of hepatic lipids in mouse NAFLD model (HFD-fed mice); format: in vivo, C57BL/6J mice
Experimental: as §1
Liver tissues were homogenized, and lipids were extracted with a mixture of chloroform and methanol (2:1), and filtered. The extracts, 0.2 ml, were evaporated to dryness and dissolved in 100 μl of isopropanol containing 10% of TRITON™ X-100 (C14H22O(C2H4O)n), a nonionic surfactant) for cholesterol assay (Wako Chemicals USA, Richmond, Va.), the NEFA solution (0.5 g of EDTA-Na2, 2 g of TRITON™ X-100, 0.76 ml of IN NaOH, and 0.5 g of sodium azide/l, pH 6.5) for free fatty acid assay (Wako Chemicals USA, Richmond, Va.), or isopropanol only for triglyceride assay (Fisher Scientific, Pittsburgh, Pa.). All of the assays were performed according to the manufacturer's instructions, respectively. Each lipid concentration was normalized to liver weight.

[5] = test system: THP-1 macrophages; experiment: mRNA levels in THP-1 macrophages by real-time RT-PCR; format: cell-based, Human
Experimental: Human THP-1 monocytes and HepG2 cells were purchased from the American Type Culture Collection (ATCC, Manassas, Va.) and maintained according to the supplier's protocols. THP-1 monocytes were differentiated to macrophages by adding 100 nM of phorbol 12-myristate 13-acetate (PMA). When cells reached ˜90% confluence, 25HCDS in ethanol (the final concentration of ethanol in media was 0.1%) was added. The cells were harvested at the indicated times for protein, mRNA, and lipid analysis.
as §2

[6] = Body mass, caloric intake, liver weight and toxicity during long-term treatment of HFD-fed mice; format: in vivo, C57BL/6J mice
Experimental: as §1
To study the effects of long-term treatment of 25HCDS on lipid homeostasis, 8-week-old C57BL/6J female mice were fed a HFD for 10 weeks, and then divided into two groups. One group was treated with 25HCDS and the other with vehicle by peritoneal injection once every three days for six weeks. During the treatment, the mice were fed a HFD, and body mass and caloric intakes were monitored. […] After 6 weeks of injections, the mice were fasted overnight, and sacrificed.

[7] = test system: Hepatic mRNA Expression involved in lipid metabolism in the Mice Fed a HFD; experiment: Relative hepatic mRNA expression of lipid metabolism genes in HFD-fed mice (real-time RT-PCR); format: in vivo, C57BL/6J mice; details: 25HCDS 25 mg/kg i.p. once every three days for 6 weeks, HFD vehicle = 1.0, mean ± SD, n = 7
Experimental: as §2, §1

[8] = 25 mg/kg i.p. once every three days for 6 weeks, versus HFD vehicle
[9] = 25HCDS 25 mg/kg i.p. once every three days for 6 weeks, HFD vehicle = 1.0, mean ± SD, n = 7
[10] = HFD-fed mice, 25 mg/kg i.p. once every three days for 6 weeks, versus HFD vehicle, 25 mg/kg
[11] = in vivo studies, 25HCDS administration
[12] = concentration dependent and time dependent, FIG. 5A
[13] = HFD-fed mice during 6 weeks of treatment, versus vehicle, data not shown

C[C@H](CCCC(C)(C)O)[C@H]1CC[C@H]2[C@@H]3CC=C4C[C@@H](OS(=O)(=O)O)CC[C@]4(C)[C@H]3CC[C@]12C [25HC3S, 5-Cholesten-3β, 25-diol 3-sulfate]
PPARγ mRNA [1]: only slightly increases | alkaline phosphatase activity in sera [2]: decreasing

C[C@H](CCCC(C)(C)OS(=O)(=O)O)[C@H]1CC[C@H]2[C@@H]3CC=C4C[C@@H](OS(=O)(=O)O)CC[C@]4(C)[C@H]3CC[C@]12C [25HCDS, 5-cholesten-3β, 25-diol, disulfate]
increase of PGC-1α expression in the liver [3, 8]: 2 fold | suppression of IL1β expression in liver [3, 8]: 36% | suppression of TNFα expression in liver [3, 8]: 50% | IL1α relative hepatic mRNA expression [3, 9]: 1.02 ± 0.20 | IL1β relative hepatic mRNA expression [3, 9]: 0.64 ± 0.16 | IkBα relative hepatic mRNA expression [3, 9]: 1.35 ± 0.27 | PGC-1α relative hepatic mRNA expression [3, 9]: 2.11 ± 0.82 | PPARα (Peroxisome proliferator-activated receptor gamma) relative hepatic mRNA expression [3, 9]: 1.27 ± 0.52 | TNFv (Tumor necrosis factor a) relative hepatic mRNA expression [3, 9]: 0.50 ± 0.21 | decrease of total cholesterol in liver tissue ([4]; HFD-fed mice, 25 mg/kg i.p. once every three days for 6 weeks, versus HFD vehicle): 30% | decrease of free fatty acids in liver tissue [4, 10]: 20% and 25% | decrease of triglycerides in liver tissue [4, 10]: 18% and 20% | decrease of hepatic neutral lipids [4, 11]: 20-35% | PPARγ mRNA levels ([5]; FIG. 5C, 5D): linearly increased | expression of SREBP1/2 ([5]; FIGS. 5A and 5B): decreases | IκBα expression ([5]; at an early stage and at low concentrations): coincidently increased | ACC mRNA levels [5, 12]: decreases | FAS mRNA levels [5, 12]: decreases | HMG-CoA reductase mRNA levels ([5]; concentration dependent and time dependent, FIG. 5B): decreases | body mass [6, 13]: No significant difference | caloric intakes [6, 13]: No significant difference | liver weights ([6]; after 6 weeks of injections, data not shown): did not show significant differences | toxicity [6, 11]: without exhibiting toxicity | ACC1 relative hepatic mRNA expression [7]: 0.86 ± 0.18 | CD36 relative hepatic mRNA expression [7]: 0.69 ± 0.29 | FAS relative hepatic mRNA expression [7]: 0.68 ± 0.17 | GPAM relative hepatic mRNA expression [7]: 0.74 ± 0.18 | HMGR relative hepatic mRNA expression [7]: 0.84 ± 0.07 | LDLR relative hepatic mRNA expression [7]: 0.62 ± 0.08 | MTTP relative hepatic mRNA expression [7]: 0.94 ± 0.17 | PLTP relative hepatic mRNA expression [7]: 0.68 ± 0.21 | SREBP-1c relative hepatic mRNA expression [7]: 0.64 ± 0.14 | SREBP-2 relative hepatic mRNA expression [7]: 1.12 ± 0.25
